From ChEMBL document CHEMBL3044718, “Effect of phenolic compounds on growth and ligninolytic enzyme production in Botryosphaeria isolates” (2013)
In brackets after ≈: the same amount, converted by molar mass. Activity calls are given as the source filed them. No cut-off for these calls is given here.

Experiments:
Neofusicoccum ribis [1] = experiment: Inhibition of Neofusicoccum ribis mycelium growth at 20 mM measured at 28 degC after 4 days; type: functional, organism-based
Lasiodiplodia theobromae [2] = experiment: Decrease in Lasiodiplodia theobromae ligninolytic enzyme production assessed as laccase activity using ABTS as substrate at 1 mM measured at 28 degC after 4 days; type: functional; conditions: 96 h
Botryosphaeria dothidea [3] = experiment: Decrease in Botryosphaeria dothidea ligninolytic enzyme production assessed as pectinase activity using pectin as substrate at 1 mM measured at 28 degC after 4 days; type: functional, organism-based
Neofusicoccum ribis [4] = experiment: Decrease in Neofusicoccum ribis mycelium biomass production at 25 mM measured at 28 degC after 4 days by gravimetric analysis; type: functional; conditions: 96 h
Diplodia seriata [5] = experiment: Decrease in Diplodia seriata (Schwein.) Shoemaker mycelium biomass production measured at 28 degC after 4 days by gravimetric analysis; type: functional
Botryosphaeria dothidea [6] = experiment: Inhibition of Botryosphaeria dothidea mycelium growth measured at 28 degC after 4 days; type: functional
Lasiodiplodia theobromae [7] = experiment: Decrease in Lasiodiplodia theobromae mycelium biomass production measured at 28 degC after 4 days by gravimetric analysis; type: functional
Neofusicoccum ribis [8] = experiment: Inhibition of Neofusicoccum ribis mycelium growth measured at 28 degC after 4 days; type: functional
Lasiodiplodia theobromae [9] = experiment: Decrease in Lasiodiplodia theobromae ligninolytic enzyme production assessed as pectinase activity using pectin as substrate at 25 mM measured at 28 degC after 4 days; type: functional; conditions: 96 h
Botryosphaeria dothidea [10] = experiment: Inhibition of Botryosphaeria dothidea mycelium growth at 20 mM measured at 28 degC after 4 days; type: functional, organism-based
Neofusicoccum ribis [11] = experiment: Decrease in Neofusicoccum ribis ligninolytic enzyme production assessed as pectinase activity using pectin as substrate measured at 28 degC after 4 days; type: functional, organism-based
Diplodia seriata [12] = experiment: Inhibition of Diplodia seriata (Schwein.) Shoemaker mycelium growth at 15 mM measured at 28 degC after 4 days; type: functional, organism-based
Diplodia seriata [13] = experiment: Inhibition of Diplodia seriata (Schwein.) Shoemaker mycelium growth measured at 28 degC after 4 days; type: functional
Lasiodiplodia theobromae [14] = experiment: Inhibition of Lasiodiplodia theobromae mycelium growth measured at 28 degC after 4 days; type: functional
Lasiodiplodia theobromae [15] = experiment: Inhibition of Lasiodiplodia theobromae mycelium growth at 20 mM measured at 28 degC after 4 days; type: functional; conditions: 96 h, read-out: GI
Diplodia seriata [16] = experiment: Decrease in Diplodia seriata (Schwein.) Shoemaker ligninolytic enzyme production assessed as pectinase activity using pectin as substrate at 1 mM measured at 28 degC after 4 days; type: functional, organism-based
Botryosphaeria dothidea [17] = experiment: Decrease in Botryosphaeria dothidea ligninolytic enzyme production assessed as laccase activity using ABTS as substrate measured at 28 degC after 4 days; type: functional, organism-based
Neofusicoccum ribis [18] = experiment: Inhibition of Neofusicoccum ribis mycelium growth at 15 mM measured at 28 degC after 4 days; type: functional, organism-based
Lasiodiplodia theobromae [19] = experiment: Inhibition of Lasiodiplodia theobromae mycelium growth at 15 mM measured at 28 degC after 4 days; type: functional; conditions: 96 h, read-out: GI
Botryosphaeria dothidea [20] = experiment: Decrease in Botryosphaeria dothidea ligninolytic enzyme production assessed as laccase activity using ABTS as substrate at 5 mM measured at 28 degC after 4 days; type: functional
Neofusicoccum ribis [21] = experiment: Inhibition of Neofusicoccum ribis mycelium growth at 25 mM measured at 28 degC after 4 days; type: functional; conditions: 96 h, read-out: GI
Lasiodiplodia theobromae [22] = experiment: Inhibition of Lasiodiplodia theobromae mycelium growth at 25 mM measured at 28 degC after 4 days; type: functional; conditions: 96 h, read-out: GI
Diplodia seriata [23] = experiment: Inhibition of Diplodia seriata (Schwein.) Shoemaker mycelium growth at 25 mM measured at 28 degC after 4 days; type: functional; conditions: 96 h, read-out: GI
Botryosphaeria dothidea [24] = experiment: Inhibition of Botryosphaeria dothidea mycelium growth at 25 mM measured at 28 degC after 4 days; type: functional; conditions: 96 h, read-out: GI
Diplodia seriata [25] = experiment: Inhibition of Diplodia seriata (Schwein.) Shoemaker mycelium growth at 10 mM measured at 28 degC after 4 days; type: functional, organism-based
Botryosphaeria dothidea [26] = experiment: Inhibition of Botryosphaeria dothidea mycelium growth at 10 mM measured at 28 degC after 4 days; type: functional, organism-based
Phellinus tremulae = experiment: Inhibition of Phellinus tremulae mycelium growth; type: functional
Botryosphaeria dothidea [27] = experiment: Decrease in Botryosphaeria dothidea ligninolytic enzyme production assessed as laccase activity using ABTS as substrate at 25 mM measured at 28 degC after 4 days; type: functional; conditions: 96 h
Botryosphaeria dothidea [28] = experiment: Decrease in Botryosphaeria dothidea ligninolytic enzyme production assessed as laccase activity using ABTS as substrate at 15 mM measured at 28 degC after 4 days; type: functional, organism-based
Neofusicoccum ribis [29] = experiment: Decrease in Neofusicoccum ribis ligninolytic enzyme production assessed as laccase activity using ABTS as substrate at 1 mM measured at 28 degC after 4 days; type: functional; conditions: 96 h
Botryosphaeria dothidea [30] = experiment: Decrease in Botryosphaeria dothidea ligninolytic enzyme production assessed as laccase activity using ABTS as substrate at 1 mM measured at 28 degC after 4 days; type: functional
Diplodia seriata [31] = experiment: Decrease in Diplodia seriata (Schwein.) Shoemaker ligninolytic enzyme production assessed as laccase activity using ABTS as substrate at 1 mM measured at 28 degC after 4 days; type: functional; conditions: 96 h
Diplodia seriata [32] = experiment: Decrease in Diplodia seriata (Schwein.) Shoemaker ligninolytic enzyme production assessed as pectinase activity using pectin as substrate at 15 mM measured at 28 degC after 4 days; type: functional, organism-based

SMILES | growth inhibition (GI) (Neofusicoccum ribis [1]) | inhibition at 1000 µM (Lasiodiplodia theobromae [2]) [%] | inhibition (Botryosphaeria dothidea [3]) | inhibition at 25000 µM (Neofusicoccum ribis [4]) [%] | inhibition (INH) (Diplodia seriata [5]) [%] | MIC (Botryosphaeria dothidea [6]; 96 h) [mM] | inhibition (INH) (Lasiodiplodia theobromae [7]) [%] | MIC (Neofusicoccum ribis [8]; 96 h) [mM] | inhibition at 25000 µM (Lasiodiplodia theobromae [9]) [%] | inhibition (Neofusicoccum ribis [11]) | growth inhibition (GI) (Diplodia seriata [12]) | MIC (Diplodia seriata [13]; 96 h) [mM] | MIC (Lasiodiplodia theobromae [14]; 96 h) [mM] | inhibition (Botryosphaeria dothidea [17]) | inhibition of growth at 25000 µM (Neofusicoccum ribis [21]) [%] | inhibition of growth at 25000 µM (Lasiodiplodia theobromae [22]) [%] | also measured
Oc1ccccc1O [CATECHOL] | Active | 58 | inactive | 100 | 58 | 5 (≈ 551 µg/mL) | 58 | 5 (≈ 551 µg/mL) | 57 | inactive | Active | 5 (≈ 551 µg/mL) | 5 (≈ 551 µg/mL) | – | – | – | growth inhibition (GI) (Botryosphaeria dothidea [10]): Active; inhibition of growth at 20000 µM (Lasiodiplodia theobromae [15]): 100%
COc1cc(C(=O)O)cc(OC)c1O [SYRINGIC ACID] | – | 58 | inactive | – | – | – | – | – | 57 | inactive | – | – | – | – | – | – | inhibition (Diplodia seriata [16]): Active; inhibition (Diplodia seriata [5]): inactive; MIC (Botryosphaeria dothidea [6]): inactive; inhibition (Lasiodiplodia theobromae [7]): inactive; MIC (Neofusicoccum ribis [8]): inactive; MIC (Diplodia seriata [13]): inactive; MIC (Lasiodiplodia theobromae [14]): inactive
COc1cccc(OC)c1O [SYRINGOL] | – | 58 | inactive | 50 | 58 | 5 (≈ 771 µg/mL) | 58 | 5 (≈ 771 µg/mL) | 57 | inactive | Active | 5 (≈ 771 µg/mL) | 5 (≈ 771 µg/mL) | Active | – | – | growth inhibition (GI) (Neofusicoccum ribis [18]): Active; inhibition of growth at 15000 µM (Lasiodiplodia theobromae [19]): 100%; growth inhibition (GI) (Botryosphaeria dothidea [10]): Active
COc1cccc(OC)c1C(=O)O [2,6-DIMETHOXYBENZOIC ACID] | – | 58 | inactive | 50 | 58 | 5 (≈ 911 µg/mL) | 58 | 5 (≈ 911 µg/mL) | 57 | inactive | – | 5 (≈ 911 µg/mL) | 5 (≈ 911 µg/mL) | Active | 86 | 62 | inhibition (Botryosphaeria dothidea [20]): inactive; inhibition of growth at 25000 µM (Diplodia seriata [23]): 95%; inhibition of growth at 25000 µM (Botryosphaeria dothidea [24]): 95%
O=C(O)c1ccccc1 [BENZOIC ACID] | Active | 58 | inactive | 50 | – | 5 (≈ 611 µg/mL) | – | 5 (≈ 611 µg/mL) | 57 | inactive | – | 5 (≈ 611 µg/mL) | 5 (≈ 611 µg/mL) | – | – | – | inhibition (Diplodia seriata [16]): Active; growth inhibition (GI) (Diplodia seriata [25]): Active; growth inhibition (GI) (Botryosphaeria dothidea [26]): Active; MIC (Phellinus tremulae): 800 µg/mL (≈ 6.55 mM); inhibition of growth at 20000 µM (Lasiodiplodia theobromae [15]): 100%; inhibition at 25000 µM (Botryosphaeria dothidea [27]): 96%
COc1cc(C(=O)O)ccc1O [VANILLIC ACID] | – | 58 | inactive | 50 | 58 | 5 (≈ 841 µg/mL) | 58 | 5 (≈ 841 µg/mL) | 57 | inactive | Active | 5 (≈ 841 µg/mL) | 5 (≈ 841 µg/mL) | Active | 83 | 52 | inhibition (Botryosphaeria dothidea [20]): inactive; inhibition (Botryosphaeria dothidea [28]): Active; inhibition of growth at 25000 µM (Botryosphaeria dothidea [24]): 93%
COc1cc(/C=C/C(=O)O)ccc1O [FERULATE] | – | 82 | inactive | – | 58 | 5 (≈ 971 µg/mL) | 58 | 5 (≈ 971 µg/mL) | 57 | inactive | Active | 5 (≈ 971 µg/mL) | 5 (≈ 971 µg/mL) | Active | 74 | 81 | inhibition at 5000 µM (Botryosphaeria dothidea [20]; 96 h): 90%; inhibition at 1000 µM (Neofusicoccum ribis [29]): 82%
O=C(O)/C=C/c1ccc(O)cc1 [COUMARIC ACID] | – | 71 | inactive | – | 58 | 5 (≈ 821 µg/mL) | 58 | 5 (≈ 821 µg/mL) | 57 | inactive | – | 5 (≈ 821 µg/mL) | 5 (≈ 821 µg/mL) | Active | 81 | 100 | inhibition at 1000 µM (Botryosphaeria dothidea [30]; 96 h): 71%; growth inhibition (GI) (Diplodia seriata [25]): Active; inhibition at 1000 µM (Diplodia seriata [31]): 71%; growth inhibition (GI) (Botryosphaeria dothidea [26]): Active; inhibition at 1000 µM (Neofusicoccum ribis [29]): 71%
COc1ccccc1O [GUAIACOL] | Active | 58 | – | – | 58 | 5 (≈ 621 µg/mL) | 58 | 5 (≈ 621 µg/mL) | 57 | inactive | Active | 5 (≈ 621 µg/mL) | 5 (≈ 621 µg/mL) | Active | – | – | inhibition (Diplodia seriata [32]): Active; inhibition (Botryosphaeria dothidea [30]): inactive; inhibition of growth at 15000 µM (Lasiodiplodia theobromae [19]): 100%
O=C(O)c1ccccc1O [SALICYLIC ACID] | Active | 58 | inactive | 50 | 58 | 5 (≈ 691 µg/mL) | 58 | 5 (≈ 691 µg/mL) | 57 | inactive | Active | 5 (≈ 691 µg/mL) | 5 (≈ 691 µg/mL) | Active | – | 100 | inhibition (Botryosphaeria dothidea [28]): Active
